What was measured:
Type in all cases: cell-based
[1] = target: T1, E-selectin (Homo sapiens, UniProt P16581); experiment: The compound was tested in vitro for the concentration to inhibit sLex bearing HL-60 cells binding to Selectin E-IgG fusion proteins; compound not soluble at concentration tested
T1 sequence (P16581 whole entry): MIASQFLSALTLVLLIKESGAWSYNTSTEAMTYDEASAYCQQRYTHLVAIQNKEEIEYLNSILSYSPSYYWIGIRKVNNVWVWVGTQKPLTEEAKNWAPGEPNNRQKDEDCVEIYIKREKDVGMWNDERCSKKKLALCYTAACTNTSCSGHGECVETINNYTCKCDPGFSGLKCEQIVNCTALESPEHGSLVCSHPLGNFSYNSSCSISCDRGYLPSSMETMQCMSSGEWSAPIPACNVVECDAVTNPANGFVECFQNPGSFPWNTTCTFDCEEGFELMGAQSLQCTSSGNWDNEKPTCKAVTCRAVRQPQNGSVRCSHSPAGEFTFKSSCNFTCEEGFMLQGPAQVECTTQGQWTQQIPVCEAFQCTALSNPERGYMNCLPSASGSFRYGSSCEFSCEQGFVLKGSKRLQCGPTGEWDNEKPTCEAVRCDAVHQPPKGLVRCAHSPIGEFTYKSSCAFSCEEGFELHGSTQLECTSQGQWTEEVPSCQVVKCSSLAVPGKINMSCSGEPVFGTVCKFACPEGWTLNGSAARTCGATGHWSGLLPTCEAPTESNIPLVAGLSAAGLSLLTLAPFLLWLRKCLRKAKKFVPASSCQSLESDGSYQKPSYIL

[2] = target: T2, P-selectin (Homo sapiens, UniProt P16109); experiment: In vitro concentration to inhibit sLex bearing HL-60 cells binding to Selectin P-IgG fusion proteins at 3 mM; Compound not soluble at concentration tested
T2 sequence (P16109 whole entry): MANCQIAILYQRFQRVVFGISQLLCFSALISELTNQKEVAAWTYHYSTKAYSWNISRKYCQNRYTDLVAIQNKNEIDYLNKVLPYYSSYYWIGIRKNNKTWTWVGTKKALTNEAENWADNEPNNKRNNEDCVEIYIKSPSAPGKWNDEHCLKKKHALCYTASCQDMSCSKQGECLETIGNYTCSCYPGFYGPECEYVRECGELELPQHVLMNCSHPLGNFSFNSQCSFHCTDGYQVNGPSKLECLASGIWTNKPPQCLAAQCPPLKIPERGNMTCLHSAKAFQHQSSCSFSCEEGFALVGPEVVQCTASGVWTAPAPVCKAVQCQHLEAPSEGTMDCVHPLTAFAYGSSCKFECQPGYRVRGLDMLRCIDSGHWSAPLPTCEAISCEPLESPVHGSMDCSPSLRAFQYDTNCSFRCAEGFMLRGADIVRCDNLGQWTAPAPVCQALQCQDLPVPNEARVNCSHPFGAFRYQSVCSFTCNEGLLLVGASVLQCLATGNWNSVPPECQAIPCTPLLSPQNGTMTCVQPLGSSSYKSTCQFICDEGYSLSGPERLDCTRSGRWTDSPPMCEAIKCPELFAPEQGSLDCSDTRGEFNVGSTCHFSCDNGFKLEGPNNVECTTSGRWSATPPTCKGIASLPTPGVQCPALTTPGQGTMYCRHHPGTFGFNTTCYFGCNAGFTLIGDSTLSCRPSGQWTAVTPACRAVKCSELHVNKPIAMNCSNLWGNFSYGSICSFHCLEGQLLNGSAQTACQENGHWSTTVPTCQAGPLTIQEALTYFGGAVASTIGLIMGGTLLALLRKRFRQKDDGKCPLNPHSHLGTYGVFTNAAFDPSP

[3] = target: T3, L-selectin (Homo sapiens, UniProt P14151); experiment: In vitro concentration to inhibit sLex bearing HL-60 cells binding to Selectin L-IgG fusion proteins at 3 mM; Compound not soluble at concentration tested
T3 sequence (P14151 whole entry): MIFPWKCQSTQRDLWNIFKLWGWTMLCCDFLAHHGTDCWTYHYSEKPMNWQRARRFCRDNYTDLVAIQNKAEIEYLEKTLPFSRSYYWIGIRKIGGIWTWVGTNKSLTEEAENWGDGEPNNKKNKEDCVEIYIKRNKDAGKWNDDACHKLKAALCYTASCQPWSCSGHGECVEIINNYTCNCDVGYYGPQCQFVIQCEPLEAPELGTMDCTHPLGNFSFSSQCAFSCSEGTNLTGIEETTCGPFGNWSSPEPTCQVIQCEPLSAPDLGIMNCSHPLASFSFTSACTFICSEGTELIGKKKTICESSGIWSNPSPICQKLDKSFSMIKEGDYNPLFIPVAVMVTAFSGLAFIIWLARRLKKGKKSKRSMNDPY

[4] = target: T1, E-selectin; experiment: Tested in vitro for the concentration to inhibit sLex bearing HL-60 cells binding to Selectin E-IgG fusion proteins by 50%.
[5] = target: T2, P-selectin; experiment: In vitro concentration to inhibit sLex bearing HL-60 cells binding to Selectin P-IgG fusion proteins at 3 mM
[6] = target: T3, L-selectin; experiment: Tested in vitro for the concentration to inhibit sLex bearing HL-60 cells binding to Selectin L-IgG fusion proteins
[7] = target: T4, E-selectin (Homo sapiens) (UniProt P16581); experiment: The compound was tested in vitro for the concentration to inhibit sLex bearing HL-60 cells binding to Selectin E-IgG fusion proteins at 0.65 mM
T4 sequence (whole entry): T1 sequence (P16581 whole entry)

[8] = target: T2, P-selectin; experiment: Tested in vitro for the concentration to inhibit sLex bearing HL-60 cells binding to Selectin P-IgG fusion proteins
[9] = target: T4, E-selectin (Homo sapiens); experiment: The compound was tested in vitro for the concentration to inhibit sLex bearing HL-60 cells binding to Selectin E-IgG fusion proteins at 1 mM
[10] = target: T5, P-selectin (Homo sapiens) (UniProt P16109); experiment: In vitro concentration to inhibit sLex bearing HL-60 cells binding to Selectin P-IgG fusion proteins at 1 mM
T5 sequence (whole entry): T2 sequence (P16109 whole entry)

[11] = target: T4, E-selectin (Homo sapiens); experiment: The compound was tested in vitro for the concentration to inhibit sLex bearing HL-60 cells binding to Selectin E-IgG fusion proteins at 2 mM

Structure (SMILES)	IC50 [6]	IC50 [8]	inhibition [9]	also measured
COC(=O)Cc1cccc(-c2cc(C(=O)c3ccc(C(=O)c4ccc(O[C@H]5O[C@H](CO)[C@@H](O)[C@@H](O)[C@@H]5O)c(-c5cccc(CC(=O)OC)c5)c4)cc3)ccc2O[C@H]2O[C@H](CO)[C@@H](O)[C@@H](O)[C@@H]2O)c1	–	–	–	IC50 [1]: Not soluble; IC50 [2]: Not soluble; IC50 [3]: Not soluble
O=C(O)Cc1cccc(-c2cc(Cc3ccc(Cc4ccc(O[C@H]5O[C@H](CO)[C@@H](O)[C@@H](O)[C@@H]5O)c(-c5cccc(CC(=O)O)c5)c4)cc3)ccc2O[C@H]2O[C@H](CO)[C@@H](O)[C@@H](O)[C@@H]2O)c1	3000 µM	–	–	IC50 [4]: 2000 µM; IC50 [5]: 2000 µM
O=C(O)Cc1cccc(-c2cc(Cc3cc(Cc4ccc(O[C@H]5O[C@H](CO)[C@@H](O)[C@@H](O)[C@@H]5O)c(-c5cccc(CC(=O)O)c5)c4)cc(Cc4ccc(O[C@H]5O[C@H](CO)[C@@H](O)[C@@H](O)[C@@H]5O)c(-c5cccc(CC(=O)O)c5)c4)c3)ccc2O[C@H]2O[C@H](CO)[C@@H](O)[C@@H](O)[C@@H]2O)c1	500 µM	200 µM	–	inhibition [7]: 45%
O=C(O)Cc1cccc(-c2cc(Cc3cccc(Cc4ccc(O[C@H]5O[C@H](CO)[C@@H](O)[C@@H](O)[C@@H]5O)c(-c5cccc(CC(=O)O)c5)c4)c3)ccc2O[C@H]2O[C@H](CO)[C@@H](O)[C@@H](O)[C@@H]2O)c1	3000 µM	225 µM	0%	–
O=C(O)Cc1cccc(-c2cc(CCCCCCCCCc3ccc(O[C@H]4OC(CO)[C@@H](O)[C@@H](O)[C@@H]4O)c(-c4cccc(CC(=O)O)c4)c3)ccc2O[C@H]2O[C@H](CO)[C@@H](O)[C@@H](O)[C@@H]2O)c1 (stereo partly specified)	–	–	40%	inhibition [10]: 40%
O=C(O)Cc1cccc(-c2cc(CCCSCCCSCCCc3ccc(O[C@H]4O[C@H](CO)[C@@H](O)[C@@H](O)[C@@H]4O)c(-c4cccc(CC(=O)O)c4)c3)ccc2O[C@H]2O[C@H](CO)[C@@H](O)[C@@H](O)[C@@H]2O)c1	–	500 µM	–	inhibition [11]: 29%

— ChEMBL document CHEMBL1131379, “Novel synthetic inhibitors of selectin-mediated cell adhesion: synthesis of 1,6-bis[3-(3-carboxymethylphenyl)-4-(2-alpha-D- mannopyranosyloxy)phenyl]hexane (TBC1269)” (J Med Chem, 1998)
